Results as given in ChEMBL document CHEMBL1201862, “PubChem BioAssay data set” (2004).
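Following 48 hours of exposure in 96-well plates, responses at five concentrations were used to interpolate endpoints linearly. GI50 = concentration required for 50% inhibition of growth.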 Active and inactive are the calls of the source. Cut-off read from the data, not from the text of the source: active = GI50 up to about 1.1 µM and inactive = higher.

Legend:
Assay in all cases: NCI-60 cell line screen, 48 h
NCI/ADR-RES = system: NCI/ADR-RES
SF-295 = system: SF-295
NCI-H226 = system: NCI-H226
COLO 205 = system: COLO 205
PC-3 = system: PC-3
U-251 = system: U-251
EKVX = system: EKVX
HCT-15 = system: HCT-15
K562 = system: K562
SK-MEL-2 = system: SK-MEL-2
MDA-MB-435 = system: MDA-MB-435
MDA-MB-231 = system: MDA-MB-231
MDA-N = system: MDA-N
SK-OV-3 = system: SK-OV-3
ACHN = system: ACHN
BT-549 = system: BT-549
786-0 = system: 786-0
OVCAR-5 = system: OVCAR-5
TK-10 = system: TK-10
UO-31 = system: UO-31
KM12 = system: KM12
SF-539 = system: SF-539
UACC-257 = system: UACC-257
A498 = system: A498
RXF 393 = system: RXF 393
SW-620 = system: SW-620
Malme-3M = system: Malme-3M
DU-145 = system: DU-145
SNB-19 = system: SNB-19
NCI-H23 = system: NCI-H23
M14 = system: M14
OVCAR-8 = system: OVCAR-8
IGROV-1 = system: IGROV-1
OVCAR-4 = system: OVCAR-4
HCT-116 = system: HCT-116
SNB-75 = system: SNB-75
LOX IMVI = system: LOX IMVI
MCF7 = system: MCF7
SK-MEL-28 = system: SK-MEL-28
HCC 2998 = system: HCC 2998
SR = system: SR
RPMI-8226 = system: RPMI-8226
MOLT-4 = system: MOLT-4
A549 = system: A549
SK-MEL-5 = system: SK-MEL-5
NCI-H522 = system: NCI-H522
SF-268 = system: SF-268
CCRF-CEM = system: CCRF-CEM
HOP-62 = system: HOP-62
SN12C = system: SN12C
NCI-H460 = system: NCI-H460
CAKI-1 = system: CAKI-1
HT-29 = system: HT-29
T47D = system: T47D
UACC-62 = system: UACC-62
HOP-92 = system: HOP-92
HL-60 = system: HL-60
OVCAR-3 = system: OVCAR-3
Hs-578T = system: Hs-578T

`CCCCN1C(=O)c2c(Br)sc(Br)c2C1=O` was tested, and the GI50 (NCI/ADR-RES) was 30.9 µM (inactive), the GI50 (SF-295) was 43.1 µM (inactive) and the GI50 (NCI-H226) was 51.1 µM (inactive). For the same compound, the GI50 (COLO 205) was 19.5 µM (inactive), the GI50 (PC-3) was 28.8 µM (inactive) and the GI50 (U-251) was 39.1 µM (inactive). The GI50 (EKVX) was 70.1 µM (inactive), the GI50 (HCT-15) was 25.7 µM and the GI50 (K562) was 30.5 µM (inactive). The GI50 (SK-MEL-2) was 46 µM (inactive), the GI50 (MDA-MB-435) was 37.4 µM (inactive) and the GI50 (MDA-MB-231) was 26.9 µM (inactive). The GI50 (MDA-N) was 33 µM (inactive), the GI50 (SK-OV-3) was 37.6 µM (inactive) and the GI50 (ACHN) was 47.8 µM (inactive). For the same compound, the GI50 (BT-549) was 61.9 µM (inactive), the GI50 (786-0) was 37 µM (inactive) and the GI50 (OVCAR-5) was 30.4 µM (inactive). The GI50 (TK-10) was 60 µM (inactive), the GI50 (UO-31) was 33.9 µM (inactive) and the GI50 (KM12) was 25.1 µM (inactive). The GI50 (SF-539) was 24.2 µM (inactive), the GI50 (UACC-257) was 30.4 µM (inactive) and the GI50 (A498) was 50.6 µM (inactive). The GI50 (RXF 393) was 52 µM (inactive), the GI50 (SW-620) was 24.8 µM (inactive) and the GI50 (Malme-3M) was 33.2 µM (inactive). The GI50 (DU-145) was 36.4 µM (inactive), the GI50 (SNB-19) was 51.5 µM (inactive) and the GI50 (NCI-H23) was 44.3 µM (inactive). For the same compound, the GI50 (M14) was 31.1 µM (inactive), the GI50 (OVCAR-8) was 38.9 µM (inactive) and the GI50 (IGROV-1) was 31.6 µM (inactive). For the same compound, the GI50 (OVCAR-4) was 25.7 µM (inactive), the GI50 (HCT-116) was 24.9 µM (inactive) and the GI50 (SNB-75) was 29.5 µM (inactive). The GI50 (LOX IMVI) was 32.6 µM (inactive), the GI50 (MCF7) was 20.2 µM (inactive) and the GI50 (SK-MEL-28) was 43.9 µM (inactive). The GI50 (HCC 2998) was 33.8 µM (inactive), the GI50 (SR) was 21.2 µM (inactive) and the GI50 (RPMI-8226) was 29.3 µM (inactive). The GI50 (MOLT-4) was 24.2 µM (inactive), the GI50 (A549) was 25.8 µM (inactive) and the GI50 (SK-MEL-5) was 39.5 µM (inactive). The GI50 (NCI-H522) was 0.391 µM (active), the GI50 (SF-268) was 31.8 µM (inactive) and the GI50 (CCRF-CEM) was 26.3 µM (inactive). For the same compound, the GI50 (HOP-62) was 26.6 µM (inactive), the GI50 (SN12C) was 34.5 µM (inactive) and the GI50 (NCI-H460) was 31.6 µM (inactive). The GI50 (CAKI-1) was 67.8 µM (inactive), the GI50 (HT-29) was 23.3 µM (inactive) and the GI50 (T47D) was 57.7 µM (inactive). For the same compound, the GI50 (UACC-62) was 32.4 µM (inactive).
With `C/C(=N\NC(=S)N1CCCCC1)c1cccc(C)n1` the GI50 (NCI/ADR-RES) was < 0.01 µM (active), the GI50 (SF-295) was 0.056 µM (active) and the GI50 (NCI-H226) was < 0.01 µM (active). For the same compound, the GI50 (COLO 205) was < 0.01 µM (active), the GI50 (PC-3) was < 0.01 µM (active) and the GI50 (U-251) was < 0.01 µM (active). The GI50 (EKVX) was < 0.01 µM (active), the GI50 (HOP-92) was 0.169 µM (active) and the GI50 (HL-60) was < 0.01 µM (active). For the same compound, the GI50 (HCT-15) was < 0.01 µM, the GI50 (K562) was < 0.01 µM (active) and the GI50 (SK-MEL-2) was 0.515 µM (active). For the same compound, the GI50 (MDA-MB-435) was 0.0944 µM (active), the GI50 (MDA-MB-231) was < 0.01 µM (active) and the GI50 (MDA-N) was 0.0871 µM (active). For the same compound, the GI50 (SK-OV-3) was < 0.0146 µM (active), the GI50 (ACHN) was < 0.012 µM (active) and the GI50 (786-0) was < 0.01 µM (active). For the same compound, the GI50 (OVCAR-5) was 0.149 µM (active), the GI50 (UO-31) was 0.0414 µM (active) and the GI50 (KM12) was < 0.0221 µM (active). For the same compound, the GI50 (SF-539) was < 0.0404 µM (active), the GI50 (UACC-257) was < 0.01 µM (active) and the GI50 (A498) was 0.0199 µM (active). For the same compound, the GI50 (RXF 393) was 0.238 µM (active), the GI50 (SW-620) was < 0.01 µM (active) and the GI50 (Malme-3M) was < 0.0197 µM (active). For the same compound, the GI50 (DU-145) was 0.153 µM (active), the GI50 (SNB-19) was < 0.0143 µM (active) and the GI50 (NCI-H23) was < 0.01 µM (active). For the same compound, the GI50 (OVCAR-3) was < 0.01 µM (active), the GI50 (M14) was 0.0141 µM (active) and the GI50 (OVCAR-8) was < 0.01 µM (active). The GI50 (IGROV-1) was < 0.01 µM (active), the GI50 (OVCAR-4) was 36.5 µM (inactive) and the GI50 (HCT-116) was < 0.01 µM (active). The GI50 (SNB-75) was 0.196 µM (active), the GI50 (LOX IMVI) was < 0.01 µM (active) and the GI50 (MCF7) was < 0.01 µM (active). For the same compound, the GI50 (SK-MEL-28) was 0.0968 µM (active), the GI50 (HCC 2998) was 0.082 µM (active) and the GI50 (SR) was < 0.0173 µM (active). The GI50 (RPMI-8226) was < 0.01 µM (active), the GI50 (MOLT-4) was < 0.01 µM (active) and the GI50 (A549) was 0.0325 µM (active). The GI50 (SK-MEL-5) was < 0.0335 µM (active), the GI50 (NCI-H522) was < 0.01 µM (active) and the GI50 (Hs-578T) was 22.3 µM (inactive). For the same compound, the GI50 (SF-268) was < 0.0103 µM (active), the GI50 (CCRF-CEM) was < 0.0106 µM (active) and the GI50 (HOP-62) was < 0.01 µM (active). For the same compound, the GI50 (SN12C) was 0.0108 µM (active), the GI50 (NCI-H460) was < 0.0136 µM (active) and the GI50 (CAKI-1) was < 0.01 µM (active). The GI50 (HT-29) was < 0.01 µM (active), the GI50 (T47D) was < 0.01 µM (active) and the GI50 (UACC-62) was 0.0318 µM (active).
